Literature values, collected in US10773008B2, “Medicated patch for preventing exit site infections during peritoneal dialysis” (Universiti Brunei Darussalam, priority 2016, dated 2020).

How the values were obtained:
[1] = topical mupirocin
[2] = in vivo
[3] = not given; remark: listed apart in the source

bioavailability [1]: 0.24%
half-life [2]: 20 to 40 min
log P: 2.45
PKa [3]: 4.83
Compound: C/C(=C\C(=O)OCCCCCCCCC(=O)O)C[C@@H]1OC[C@H](C[C@@H]2O[C@H]2[C@@H](C)[C@H](C)O)[C@@H](O)[C@H]1O [mupirocin]
